Experiments:
[1] = test system: strychnine-induced seizures; experiment: Strychnine-induced seizure model; type: in vivo, mice; conditions: for increase of the survival rate of the animals: reference drugs, versus control (100% died); for survival rate of strychnine-poisoned animals: dose not given
From the text: (§1) The anticonvulsant effects of the examined substances were studied in male white mice weighing 18–22 g, divided into the following groups: control (including the strychnine and nicotine groups), carbamazepine group, Convulex group, and experimental groups (one for each tested substance). Simple randomization (“heads or tails” coin toss) was used to assign animals to groups. Each group contained 10 animals. Healthy animals were included in the experiments after a 14-day quarantine period. No animals were excluded from the study. Convulsant agents were administered subcutaneously at doses of 10.0 mg/kg for nicotine (Sigma–Aldrich, Saint Louis, MO, USA) and 1.5 mg/kg for strychnine (Sigma–Aldrich, Saint Louis, MO, USA), 60 min after the oral administration of the test substances at doses ranging from 0.1 to 10 mg/kg. The onset time, duration of tremors and seizures, and survival rate of the animals were recorded. Carbamazepine (Darnitsa, Kiev, Ukraine) at doses of 5.0–10.0 mg/kg and Convulex (valproate) (Gerot Pharmazeutika GmbH, Vienna, Austria) at doses of 75.0–100.0 mg/kg (based on the therapeutic anticonvulsant dose) were used as reference drugs.
(§2) Data were presented as mean ± SD for different groups. Statistical analysis was performed using OriginPro 9.0 (MicroCal Software, Northampton, MA, USA), with p < 0.05 considered statistically significant.

[2] = test system: tremorogenic and convulsive actions of nicotine; experiment: Nicotine-induced tremor and seizure model; type: in vivo, mice; conditions: for survival rate: reference drugs; for responders at 1 mg/kg: po; for survival rate of the animals increased to: at low doses (0.1–5 mg/kg); for activity against tremorogenic and convulsive actions of nicotine versus reference drugs (in words): doses of 0.1–5 mg/kg
From the text: as §1, §2

[3] = design: method as in PMID 36677539; conditions: per os; cited from earlier work
[4] = dose 5.0 mg/kg, strychnine 1.5 mg/kg s.c.
[5] = dose 10.0 mg/kg, strychnine 1.5 mg/kg s.c.
[6] = doses of 5–10 mg/kg, versus control
[7] = Mus musculus, sc, read-out: Survival Rate
[8] = dose 5.0 mg/kg, nicotine 10 mg/kg s.c.
[9] = dose 10.0 mg/kg, nicotine 10 mg/kg s.c.
[10] = Mus musculus, oral dose 1.0 mg/kg 60 min before strychnine 1.5 mg/kg s.c., N = 10, read-out: Survival Rate
[11] = oral dose 1.0 mg/kg 60 min before strychnine 1.5 mg/kg s.c., mean ± SD, N = 10
[12] = Mus musculus, read-out: Survival Rate
[13] = oral dose 1.0 mg/kg 60 min before nicotine 10 mg/kg s.c., mean ± SD, N = 10
[14] = dose 75.0 mg/kg, strychnine 1.5 mg/kg s.c.
[15] = dose 100.0 mg/kg, strychnine 1.5 mg/kg s.c.
[16] = doses of 75–100 mg/kg, versus control
[17] = dose 75.0 mg/kg, nicotine 10 mg/kg s.c.
[18] = dose 100.0 mg/kg, nicotine 10 mg/kg s.c.

Structure (SMILES)	responders at 1 mg/kg [1, 10]	Duration of Tremor and Seizures [1, 11]	Latency to Tremor and Seizure Onset [1, 11]	LD50 [3]	responders at 1 mg/kg [2, 12]	Duration of Seizures [2, 13]	Latency to Seizure Onset [2, 13]	further results
NC(=O)N1c2ccccc2C=Cc2ccccc21 [Carbamazepine, reference compound]								responders at 5 mg/kg ([1]; Mus musculus, sc, dose 5.0 mg/kg, strychnine 1.5 mg/kg s.c., read-out: Survival Rate): 40%; responders at 10 mg/kg ([1]; Mus musculus, sc, dose 10.0 mg/kg, strychnine 1.5 mg/kg s.c., read-out: Survival Rate): 50%; Duration of Tremor and Seizures [1, 4]: 0.43 ± 0.5 min; Latency to Tremor and Seizure Onset [1, 4]: 14.6 ± 1.4 min; Duration of Tremor and Seizures [1, 5]: 0.38 ± 0.8 min; Latency to Tremor and Seizure Onset [1, 5]: 12.6 ± 1.7 min; increase of latency time for seizure onset [1, 6]: 29–49%; reduction of the duration of seizures [1, 6]: 21–37%; increase of the survival rate of the animals [1]: 40–50%; responders at 5 mg/kg [2, 7]: 60%; responders at 10 mg/kg [2, 7]: 80%; Duration of Seizures [2, 8]: 15.2 ± 0.9 min; Latency to Seizure Onset [2, 8]: 1.57 ± 0.07 min; Duration of Seizures [2, 9]: 4.7 ± 0.6 min; Latency to Seizure Onset [2, 9]: 1.5 ± 0.02 min; survival rate [2]: 60–80%
COc1cc2c(cc1OC)C(c1ccccc1)NCC2 (centres unmarked) [Compound 2, 1-Phenyl-6,7-dimethoxy-1,2,3,4-tetrahydroisoquinoline]	60%	0.43 ± 0.9 min	14.1 ± 1.5 min	273.2 (249.7 ± 296.7) mg/kg	70%	3.2 ± 0.6 min	3.2 ± 0.07 min	
COc1cc2c(cc1OC)C(c1ccccc1O)NCC2 (centres unmarked) [Compound 3, 1-(2′-Hydroxyphenyl)-6,7-dimethoxy-1,2,3,4-tetrahydroisoquinoline]	60%	0.29 ± 0.6 min	14.5 ± 1.7 min	365.3 (326.1 ± 394.5) mg/kg	90%	9.0 ± 0.4 min	2.6 ± 0.08 min	survival rate of the animals increased to [2]: 90–100%; activity against tremorogenic and convulsive actions of nicotine versus reference drugs (in words) [2]: comparable activity to the reference drugs
COc1cc2c(cc1OC)C(c1ccc(O)cc1)NCC2 (centres unmarked) [Compound 4, 1-(4′-Hydroxyphenyl)-6,7-dimethoxy-1,2,3,4-tetrahydroisoquinoline]	70%	0.57 ± 0.7 min	14.2 ± 1.8 min	924.2 (893.9 ± 953.9) mg/kg	60%	10.5 ± 0.8 min	1.8 ± 0.05 min	
COc1ccc(C2NCCc3cc(OC)c(OC)cc32)cc1 (centres unmarked) [Compound 5, 1-(4′-Methoxyphenyl)-6,7-dimethoxy-1,2,3,4-tetrahydroisoquinoline]	60%	0.54 ± 0.7 min	16.5 ± 1.8 min	1040.3 (986.0 ± 1079.8) mg/kg	80%	10.3 ± 0.6 min	2.1 ± 0.09 min	
COc1cc2c(cc1OC)C(c1ccccc1OC)NCC2 (centres unmarked) [Compound 6, 1-(2′-Methoxyphenyl)-6,7-dimethoxy-1,2,3,4-tetrahydroisoquinoline]	30%	0.50 ± 0.4 min	15.7 ± 1.7 min	286.7 (256.9 ± 318.7) mg/kg	100%	10.5 ± 0.5 min	2.4 ± 0.03 min	survival rate of strychnine-poisoned animals [1]: no more than 40%; survival rate of the animals increased to [2]: 90–100%; activity against tremorogenic and convulsive actions of nicotine versus reference drugs (in words) [2]: comparable activity to the reference drugs; survival rate in nicotine-poisoned animals ([2]; from a dose of 0.1 mg/kg): 90%
COc1cc2c(cc1OC)C(c1ccccc1[N+](=O)[O-])NCC2 (centres unmarked) [Compound 7, 1-(2′-Nitrophenyl)-6,7-dimethoxy-1,2,3,4-tetrahydroisoquinoline]	40%	0.32 ± 0.7 min	14.2 ± 1.7 min	948.9 (916.8 ± 975.8) mg/kg	70%	7.6 ± 0.8 min	2.3 ± 0.07 min	
COc1cc2c(cc1OC)C(c1cccc([N+](=O)[O-])c1)NCC2 (centres unmarked) [Compound 8, 1-(3′-Nitrophenyl)-6,7-dimethoxy-1,2,3,4-tetrahydroisoquinoline]	40%	0.56 ± 0.4 min	15.9 ± 1.7 min	531.4 (501.3 ± 554.1) mg/kg	90%	15.5 ± 0.3 min	2.3 ± 0.08 min	survival rate of the animals increased to [2]: 90–100%; activity against tremorogenic and convulsive actions of nicotine versus reference drugs (in words) [2]: comparable activity to the reference drugs
COc1cc2c(cc1OC)C(c1ccc([N+](=O)[O-])cc1)NCC2 (centres unmarked) [Compound 9, 1-(4′-Nitrophenyl)-6,7-dimethoxy-1,2,3,4-tetrahydroisoquinoline]	40%	0.51 ± 0.5 min	13.5 ± 1.9 min	1898.8 (703.5 ± 2273.4) mg/kg	90%	16.7 ± 0.4 min	2.5 ± 0.03 min	
COc1cc2c(cc1OC)C(c1ccccc1Cl)NCC2 (centres unmarked) [Compound 10, 1-(2′-Chlorophenyl)-6,7-dimethoxy-1,2,3,4-tetrahydroisoquinoline]	30%	0.60 ± 0.4 min	17.2 ± 1.7 min	264.2 (224.8 ± 293.9) mg/kg	70%	9.2 ± 0.9 min	2.2 ± 0.03 min	
COc1cc2c(cc1OC)C(c1cccc(Cl)c1)NCC2 (centres unmarked) [Compound 11, 1-(3′-Chlorophenyl)-6,7-dimethoxy-1,2,3,4-tetrahydroisoquinoline]	70%	0.46 ± 0.5 min	15.5 ± 1.2 min	232.4 (211.8 ± 251.1) mg/kg	70%	8.3 ± 0.3 min	2.2 ± 0.07 min	
COc1cc2c(cc1OC)C(c1ccc(Cl)cc1)NCC2 (centres unmarked) [Compound 12, 1-(4′-Chlorophenyl)-6,7-dimethoxy-1,2,3,4-tetrahydroisoquinoline]	20%	0.23 ± 0.6 min	18.5 ± 1.8 min	730.4 (598.2 ± 883.7) mg/kg	70%	7.0 ± 0.4 min	2.1 ± 0.09 min	
COc1cc2c(cc1OC)C(c1ccccc1Br)NCC2 (centres unmarked) [Compound 13, 1-(2′-Bromophenyl)-6,7-dimethoxy-1,2,3,4-tetrahydroisoquinoline]	40%	0.31 ± 0.7 min	10.5 ± 1.3 min	315.8 (281.2 ± 345.2) mg/kg	50%	5.0 ± 0.7 min	2.2 ± 0.03 min	survival rate of strychnine-poisoned animals [1]: no more than 40%
CCCC(CCC)C(=O)O [Valproate (Convulex), Valproate, reference compound]								responders at 75 mg/kg [1, 7]: 40%; responders at 100 mg/kg [1, 7]: 20%; Duration of Tremor and Seizures [1, 14]: 0.34 ± 0.6 min; Latency to Tremor and Seizure Onset [1, 14]: 15.4 ± 1.5 min; Duration of Tremor and Seizures [1, 15]: 0.32 ± 0.4 min; Latency to Tremor and Seizure Onset [1, 15]: 14.3 ± 1.3 min; increase of latency time [1, 16]: 46–57%; reduction of the duration of seizures [1, 16]: 53%; increase of the survival rate of the animals [1]: 20–40%; responders at 75 mg/kg ([2]; Mus musculus, sc, dose 75.0 mg/kg, nicotine 10 mg/kg s.c., read-out: Survival Rate): 90%; responders at 100 mg/kg ([2]; Mus musculus, sc, dose 100.0 mg/kg, nicotine 10 mg/kg s.c., read-out: Survival Rate): 90%; Duration of Seizures [2, 17]: 6.2 ± 0.4 min; Latency to Seizure Onset [2, 17]: 1.2 ± 0.04 min; Duration of Seizures [2, 18]: 10.8 ± 0.8 min; Latency to Seizure Onset [2, 18]: 1.5 ± 0.06 min; survival rate [2]: 90%

Source: article PMC12472494, “Anticonvulsant Potential of 1-Aryl-6,7-dimethoxy-1,2,3,4-tetrahydroisoquinolines: Insights from Strychnine and Nicotine Models in In Vivo and In Silico Studies” (Pharmaceuticals, 2025)
